# Results from patent US9562036B2, “Fluoromethyl-substituted pyrrole carboxamides as CaV2.2 calcium channel blockers” (GRÜNENTHAL GMBH, priority 2013, dated 2017).
# Molecular target: T1, Human CaV2.2 channels (Homo sapiens, UniProt Q00975)
# T1 construct: expressed in transfected cells; also stably expressing Kir2.3)
# Test: Fluorescent assay for CaV2.2 channels using potassium depolarization to induce channel opening (FLIPR, Fluo 4)
# Format: cell-based
# Settings: 3 μM test compound; 30 mM KCl alternative assay buffer (inactivated channel state); HEK293 cells; read-out: %-Inhib (CaV2.2) @3 μM @30 mM KCl
# Description: In the process, the Ca^2+ influx is quantified in the FLIPR assay with the aid of a Ca^2+-sensitive dye (type Fluo-4, Molecular Probes Europe BV, Leiden, the Netherlands) in a fluorescent imaging plate reader (FLIPR 3, Molecular Devices, Sunnyvale, USA), as described hereinafter.
# 2. Assay Descriptions and Biological Data: 2.1 Fluorescent Assay for CaV2.2 Channels Using Potassium Depolarization to Induce Channel Opening
# Human CaV2.2 channels were stably expressed in HEK293 cells together with alpha2-delta and beta subunits of voltage gated calcium channels. In addition, an inwardly rectifying potassium channel (Kir2.3) was stably expressed in these cells to augment control of the cell membrane potential by the concentration of extracellular potassium ions. Raise of the extracellular potassium concentration leads to depolarization of the membrane potential and thus regulates the voltage dependent state of CaV2.2 channels. For preparation, cells were seeded in black poly-D-lysine coated 96-well plates (Becton Dickinson, Biocoat 4640) in 100 μL medium [500 mL DMEM/F-12 plus Glutamax (Invitrogen 31331-093) plus 5.5 mL MEM NEAA 100× (Invitrogen 11140-035) plus 50 mL FBS decomplemented (Invitrogen 10270-106) plus 200 μg/mL Geneticin (Invitrogen 10131-027) plus 50 μg/mL Hygromycin B (Invitrogen 10687-010) plus 2 μg/mL Blasticidin (anti-bl5b Invivo-Gen) plus 0.2 μg/mL Puromycin (A 11138-03)] at a cell density of 30.000 cells per well. Plates were incubated at 37° C. (5% CO2) for 20 to 23 h. On the day of experiment medium was discarded and cells were loaded with Fluo 4 by addition of 100 μL of basic assay buffer (10 mM HEPES, 1 mM KCl, 149 mM NaCl, 0.8 mM CaC2, 1.7 mM MgCl2, 10 mM Glucose, 0.1% BSA. pH 7.4) containing 2 μM Fluo 4 (Molecular Probes; F-14201), 0.01% pluronic acid (Molecular Probes; P-6866) and 2.5 mM probenecid (Molecular Probes; P36400). Cells were incubated in the dark at 25° C. for 60 min. Then dye containing buffer was discarded and 100 μL basic (1 mM KCl) or alternative (30 mM KCl) assay buffer was added. The alternative assay buffer contained altered concentrations of KCl (30 mM) and NaCl (120 mM) and was used in order to promote the inactivated channel state. After that 25 μL of basic or alternative assay buffer with or without test compound were added and cells were incubated again in the dark at 25° C. for 15 min. Fluorescence intensity was measured on a FLIPR 3 instrument (Molecular Devices Corp., Sunnyvale, Calif.) with excitation at 480 nm and emission at 535 nm. After continuously reading fluorescence for 30 sec, 50 μL of basic assay buffer containing 210 mM KCl (NaCl omitted) were added for depolarization. Peak fluorescent signal intensity was determined and the amplitude of the peak signal, normalized to base line, was used to measure channel inhibition by test compounds.
# T1 sequence (Q00975 whole entry): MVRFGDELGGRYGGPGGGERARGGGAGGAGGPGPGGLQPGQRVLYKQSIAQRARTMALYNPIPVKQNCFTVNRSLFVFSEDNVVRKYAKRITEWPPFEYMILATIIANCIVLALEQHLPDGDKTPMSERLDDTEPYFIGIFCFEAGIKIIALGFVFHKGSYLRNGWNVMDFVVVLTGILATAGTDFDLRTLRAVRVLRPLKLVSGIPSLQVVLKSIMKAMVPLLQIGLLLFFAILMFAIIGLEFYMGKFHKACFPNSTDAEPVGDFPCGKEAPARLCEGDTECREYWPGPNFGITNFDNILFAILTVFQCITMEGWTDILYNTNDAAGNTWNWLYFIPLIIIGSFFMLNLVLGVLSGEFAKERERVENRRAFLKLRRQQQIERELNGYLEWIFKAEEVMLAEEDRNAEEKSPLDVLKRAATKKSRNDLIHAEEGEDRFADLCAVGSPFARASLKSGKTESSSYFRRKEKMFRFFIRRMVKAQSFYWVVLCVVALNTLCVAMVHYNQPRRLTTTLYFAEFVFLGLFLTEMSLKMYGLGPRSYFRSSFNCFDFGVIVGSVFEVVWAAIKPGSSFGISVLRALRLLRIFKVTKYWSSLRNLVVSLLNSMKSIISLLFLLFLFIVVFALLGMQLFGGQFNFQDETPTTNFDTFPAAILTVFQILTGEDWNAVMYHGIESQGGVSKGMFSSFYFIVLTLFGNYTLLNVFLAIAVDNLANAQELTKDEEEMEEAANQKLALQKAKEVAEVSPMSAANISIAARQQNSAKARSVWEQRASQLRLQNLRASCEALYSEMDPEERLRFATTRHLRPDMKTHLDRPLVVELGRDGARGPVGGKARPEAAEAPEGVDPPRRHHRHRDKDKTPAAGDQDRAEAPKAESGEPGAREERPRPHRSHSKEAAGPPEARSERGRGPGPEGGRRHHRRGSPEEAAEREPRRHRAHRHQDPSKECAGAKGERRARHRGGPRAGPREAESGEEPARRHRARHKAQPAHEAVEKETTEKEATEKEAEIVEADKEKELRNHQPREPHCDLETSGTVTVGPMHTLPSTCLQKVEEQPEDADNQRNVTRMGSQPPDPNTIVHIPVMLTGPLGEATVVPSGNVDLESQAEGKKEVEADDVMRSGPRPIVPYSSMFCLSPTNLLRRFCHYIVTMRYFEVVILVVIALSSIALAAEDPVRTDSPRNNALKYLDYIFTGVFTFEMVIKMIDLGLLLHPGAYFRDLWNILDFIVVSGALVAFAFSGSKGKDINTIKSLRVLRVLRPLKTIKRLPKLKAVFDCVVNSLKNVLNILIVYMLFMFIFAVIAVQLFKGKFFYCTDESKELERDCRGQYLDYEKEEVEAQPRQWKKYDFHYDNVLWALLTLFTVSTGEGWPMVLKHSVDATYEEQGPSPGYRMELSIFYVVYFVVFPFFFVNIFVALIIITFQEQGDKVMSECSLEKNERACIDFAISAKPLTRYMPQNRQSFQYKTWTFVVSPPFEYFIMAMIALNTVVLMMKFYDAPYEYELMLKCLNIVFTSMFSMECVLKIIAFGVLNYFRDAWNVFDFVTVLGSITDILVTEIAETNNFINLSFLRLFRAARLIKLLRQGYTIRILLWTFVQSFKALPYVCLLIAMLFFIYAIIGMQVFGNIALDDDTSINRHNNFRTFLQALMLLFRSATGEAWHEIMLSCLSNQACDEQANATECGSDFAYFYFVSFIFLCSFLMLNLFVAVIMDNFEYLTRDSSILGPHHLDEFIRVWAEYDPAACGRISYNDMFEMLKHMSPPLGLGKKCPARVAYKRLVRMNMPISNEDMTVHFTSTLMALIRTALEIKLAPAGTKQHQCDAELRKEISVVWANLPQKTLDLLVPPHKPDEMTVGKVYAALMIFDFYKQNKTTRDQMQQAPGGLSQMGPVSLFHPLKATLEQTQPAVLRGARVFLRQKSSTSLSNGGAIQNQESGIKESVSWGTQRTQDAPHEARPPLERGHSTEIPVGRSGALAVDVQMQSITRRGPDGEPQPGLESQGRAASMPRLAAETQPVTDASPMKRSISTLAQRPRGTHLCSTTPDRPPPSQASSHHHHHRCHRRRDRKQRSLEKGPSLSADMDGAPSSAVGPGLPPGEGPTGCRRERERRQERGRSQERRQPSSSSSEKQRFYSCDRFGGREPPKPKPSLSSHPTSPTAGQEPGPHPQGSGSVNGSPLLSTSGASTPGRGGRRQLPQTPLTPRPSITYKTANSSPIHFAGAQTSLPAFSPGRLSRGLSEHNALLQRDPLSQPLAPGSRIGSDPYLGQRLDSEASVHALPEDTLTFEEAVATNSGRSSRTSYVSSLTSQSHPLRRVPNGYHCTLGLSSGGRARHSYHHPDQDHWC
row,Compound,inhibition at 3 µM [%]
1,"Cc1c(-c2ccn(C)n2)c(C(=O)N(C)C(C)C)n(Cc2ccccc2)c1C(F)(F)F [Example 51, 1-Benzyl-N-isopropyl-N,4-dimethyl-3-(1-methyl-1H-pyrazol-3-yl)-5-(trifluoromethyl)-1H-pyrrole-2-carboxylic acid amide]",75 to 95
2,"Cc1c(-c2ncc(Cl)cn2)c(C(=O)NC(C)C)n(Cc2ccccc2)c1C(F)(F)F [Example 52, 1-Benzyl-3-(5-chloro-pyrimidin-2-yl)-N-isopropyl-4-methyl-5-(trifluoromethyl)-1H-pyrrole-2-carboxylic acid amide]",40 to 75
3,"Cc1c(-c2ccc(Cl)cn2)c(C(=O)NC(C)C)n(Cc2ccccc2)c1C(F)(F)F [Example 53, 1-Benzyl-3-(5-chloro-pyridin-2-yl)-N-isopropyl-4-methyl-5-(trifluoromethyl)-1H-pyrrole-2-carboxylic acid amide]",75 to 95
4,"Cc1c(-c2ncc(Cl)cn2)c(C(=O)N(C)C(C)C)n(Cc2ccccc2)c1C(F)(F)F [Example 54, 1-Benzyl-3-(5-chloro-pyrimidin-2-yl)-N-isopropyl-N,4-dimethyl-5-(trifluoromethyl)-1H-pyrrole-2-carboxylic acid amide]",> 95
5,"Cc1c(-c2ncc(C3CC3)cn2)c(C(=O)N(C)C(C)C)n(Cc2ccccc2)c1C(F)(F)F [Example 56, 1-Benzyl-3-(5-cyclopropyl-pyrimidin-2-yl)-N-isopropyl-N,4-dimethyl-5-(trifluoromethyl)-1H-pyrrole-2-carboxylic acid amide]",> 95
6,"Cc1c(-c2ncc(Cl)cn2)c(C(=O)N(C)CC(C)(C)C(=O)N(C)C)n(Cc2ccccc2)c1C(F)(F)F [Example 58, 1-Benzyl-3-(5-chloro-pyrimidin-2-yl)-N-[2-(dimethyl-carbamoyl)-2-methyl-propyl]-N,4-dimethyl-5-(trifluoromethyl)-1H-pyrrole-2-carboxylic acid amide]",> 95
7,"Cc1c(-c2ncc(Cl)cc2[S+](C)[O-])c(C(=O)N(C)C(C)C)n(Cc2ccccc2)c1C(F)(F)F (stereo not shown) [Example 61, 1-Benzyl-3-[5-chloro-3-(methylsulfinyl)-pyridin-2-yl]-N-isopropyl-N,4-dimethyl-5-(trifluoromethyl)-1H-pyrrole-2-carboxylic acid amide]",75 to 95
